Laboratory results as given in patent US12202790B2, “Sulfonamide derivatives having selective Nox inhibiting activity” (GLUCOX BIOTECH AB, priority 2018, dated 2025).

Columns and labels:
Format in all cases: cell-based
[1] = test system: rat lens epithelial explants; experiment: TGFβ-induced lens epithelial to mesenchymal transition (EMT) in rat lens epithelial explants; details: co-treatment with TGFβ, Example 11 2.4 μM, Example 17 0.3 μM; for progression of TGFβ-induced EMT: 5 days culture
Procedure: Ocular tissues were collected from postnatal-day-21 albino Wistar rats (Rattus norvegicus) that were sacrificed by asphyxiation and subsequent cervical dislocation.
(§1) Lens epithelial explants were prepared as previously described (Wang Q, et al., Investigative ophthalmology & visual science. 2010; 51(7):3599-610) and cultured in Medium 199 (M199) with Earle's salts (Life Technologies, USA), supplemented with 50 μg/mL L-glutamine, 50 IU/mL penicillin/50 μg/mL streptomycin (Thermo Scientific, USA), 2.5 μg/mL Amphostat B (Thermo Scientific, USA) and 0.1% bovine serum albumin (BSA) (Sigma, USA). M199 was equilibrated at 37° C., 5% CO2. To induce EMT, recombinant TGF-β2 was added to media in each culture dish at a working concentration of […] (R&D Systems, USA). Prior to the addition of TGF-β2, some explants were pre-treated for 30 minutes with Example 11 or Example 17, at working concentrations of 2.4 μM and 0.3 μM, respectively. The progression of EMT in live cells was observed and captured using phase-contrast microscopy (Olympus CK2, Japan) and a digital camera (Leica DFC-280, Germany). Percentage cell loss quantification was performed using the thresholding function of ImageJ (NIH), such that cells could be distinguished from bare lens capsule.

Hippocampal brain slices = experiment: In vitro stroke model: hippocampal brain slices subjected to hypoxia and glucose deprivation; details: hypoxia and glucose deprivation 5 hours, viability after 24 hours of culture
Procedure: FIG. 4 is a bar chart showing cell viability (in % of basal cell viability) of hippocampal brain slices subjected to hypoxia and starvation for 5 h and then cultured for 24 h in the absence (OGD) or presence of Example 11 at a concentration of 0.3 μM, 3 μM, or 10 μM. Basal=no hypoxia or starvation, cells cultured in the presence of culture medium only. OGD=5 h of hypoxia or starvation, cells cultured in the presence of culture medium only.
FIG. 5 is a bar chart showing cell viability (in % of basal cell viability) of hippocampal brain slices subjected to hypoxia and starvation for 5 h and then cultured for 24 h in the absence (OGD) or presence of Example 17 at a concentration of 0.3, 3 or 10 μM. Basal=no hypoxia or starvation, cells cultured in the presence of culture medium only. OGD=5 h of hypoxia or starvation, cells cultured in the presence of culture medium only.
Hippocampal brain slices and human brain micro-vascular endothelial cells were subjected to hypoxia and glucose deprivation (starvation) for 5 hours and were tested for viability after 24 hours of culture in the presence of Example 11 or Example 17 at different concentrations. Additionally, human brain micro-vascular endothelial cells were subjected to hypoxia and glucose deprivation (starvation) for 6 hours and were tested for viability after 24 hours of culture in the presence of Example 44 at various concentrations.

[2] = test system: rat lens epithelial explants; experiment: qRT-PCR gene expression analysis in TGFβ-treated rat lens epithelial explants; details: 48 hours of culture, Example 11 2.4 μM, Example 17 0.3 μM; for aSMA expression (mRNA): Example 17 at a higher degree than Example 11
Procedure: as §1
Quantitative RT-PCR (qRT-PCR) gene expression analysis was performed as previously described (Shu D, et al., Investigative ophthalmology & visual science. 2017; 58(2):781-96.).
For data analysis, the 2^-ΔΔCt method was used to estimate the relative fold change in gene expression. Using the 2^-ΔΔCt method, the gene of interest was quantified relative to, firstly, the housekeeping gene, GAPDH and, secondly, to relative gene expression in untreated explants.

[3] = test system: Nox1, Nox2, Nox3 and Nox5; experiment: Activity on Nox1, Nox2, Nox3 and Nox5
Procedure: Reactive oxygen produced in whole cells or in membrane preparation of Nox1, Nox3, Nox4, Nox5 and xanthine oxidase and glucose oxidase were determined using Amplex Red as detection probe of formed H2O2. Amplex Red (10-acetyl-3,7-dihydroxyphenoxazine) in combination with HRP and co-factors reacts with H2O2 in a 1:1 stoichiometry to form a highly fluorescent resorufin excitated at 544 nm producing emission at 590 nm.
Adherent cells (CHO, HEK) were collected by trypsinization, centrifuged, washed with HBSS, counted, and resuspended in HBSS. Cells were seeded in 96-well black flat bottom plates at a density of 50,000-100,000 cells/well. All compounds were dissolved in DMSO and concentrations ranging from 0.003 to 200 μM were tested in Nox cellular assays with a final concentration of DMSO of 1%. Cells were incubated at 37° C. with the compounds for 30 minutes before measurement. Cells expressing Nox1 and Nox2 were activated with the PKC activator PMA (0.1 μM). Nox5 was activated with the Ca2+ ionophore ionomycin (1 μM) and further enforced with PMA. The CJ HEK 293 cells overexpressed Nox4 constitutively. In the HTS screen HEK 293 TRex was used and tetracycline ([…]) was added 18 h before measurement to induce Nox4 expression. Production of hydrogen peroxide by Nox in intact cells was measured using Amplex Red fluorescence as described by Jaquet V, et al., Br J Pharmacol 2011; 164:507-520. […] Fluorescence was read in a fluorescence plate reader at 37° C. every minute between 30-60 minutes.
Compounds of the invention were tested for selectivity against Nox2 in isolated neutrophils from whole blood (human), as previously described (Anvari E, et al., vide supra). Levels of ROS from PMA stimulated primary human neutrophils were measured using isoluminol-dependent chemiluminescence. […] The dye is excited by ROS and the light emitted when the excited molecules return to the ground state, relative to the amount of released ROS, is measured. […] Luminescence was detected using FluoStar Optima (BMG, Labtech). […]

[4] = biological target: Nox1 expressing CHO cells (Homo sapiens (Human), UniProt Q9Y5S8); experiment: Oxygen consumption in Nox1 expressing CHO cells
Nox1 expressing CHO cells, sequence (Q9Y5S8 whole entry): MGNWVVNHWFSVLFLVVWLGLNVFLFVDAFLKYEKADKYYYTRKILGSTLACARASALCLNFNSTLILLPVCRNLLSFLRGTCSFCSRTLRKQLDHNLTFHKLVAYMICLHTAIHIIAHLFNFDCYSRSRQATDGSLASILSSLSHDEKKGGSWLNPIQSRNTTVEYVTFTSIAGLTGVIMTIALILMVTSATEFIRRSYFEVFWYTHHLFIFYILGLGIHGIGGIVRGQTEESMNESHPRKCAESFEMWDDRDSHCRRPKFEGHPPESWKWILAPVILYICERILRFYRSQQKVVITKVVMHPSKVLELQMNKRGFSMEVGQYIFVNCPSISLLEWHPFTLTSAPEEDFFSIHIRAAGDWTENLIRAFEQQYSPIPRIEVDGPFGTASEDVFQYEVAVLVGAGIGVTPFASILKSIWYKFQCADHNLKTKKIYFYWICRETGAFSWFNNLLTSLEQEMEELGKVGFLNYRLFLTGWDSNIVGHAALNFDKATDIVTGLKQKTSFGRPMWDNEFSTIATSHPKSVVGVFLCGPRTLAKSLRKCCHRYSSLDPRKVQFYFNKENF
Nox1 expressing CHO cells, sequence (P13498 2-195 partner): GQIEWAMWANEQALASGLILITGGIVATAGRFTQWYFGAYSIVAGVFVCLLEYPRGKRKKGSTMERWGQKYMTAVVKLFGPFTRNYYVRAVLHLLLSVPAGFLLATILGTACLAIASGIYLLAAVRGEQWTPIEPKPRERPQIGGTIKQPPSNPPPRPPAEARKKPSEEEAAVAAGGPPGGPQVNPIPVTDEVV

SMILES | progression of TGFβ-induced EMT [1] | morphology of remaining cells by day 5 [1] | neuroprotective effect (cell viability) (Hippocampal brain slices) | TGFβ-driven upregulation of Col1A and Fn (mRNA) [2] | aSMA expression (mRNA) [2] | Activity on Nox1, Nox2, Nox3 and Nox5 [3] | Inhibition of oxygen consumption in Nox1 expressing CHO cells [4]
Cc1ccccc1CCNS(=O)(=O)c1c(C)cccc1Cl [Example 11, 2-chloro-6-methyl-N-[2-(2-methylphenyl)ethyl]benzene-1-sulfonamide] | a similar effect was obtained | some of the remaining cells appeared epithelial-like | neuroprotective effect | downregulate the TGFβ-driven upregulation of Col1A and Fn | downregulate aSMA expression | inactive | No
Cc1ccccc1CCNS(=O)(=O)c1c(Cl)cc(Br)cc1Cl [Example 17, 4-bromo-2,6-dichloro-N-[2-(2-methylphenyl)ethyl]benzene-1-sulfonamide] | appeared to delay the progression of EMT | some of the remaining cells appeared epithelial-like | neuroprotective effect | downregulate the TGFβ-driven upregulation of Col1A and Fn | downregulate aSMA expression | inactive | No
O=S(=O)(NCCc1ccccc1Cl)c1c(Cl)cc(C2CC2)cc1Cl [Example 26, 2,6-dichloro-N-[2-(2-chlorophenyl)ethyl]-4-cyclopropylbenzene-1-sulfonamide] | – | – | – | – | – | inactive | No
